Read-outs that look alike come from different tables or passages of the source.
Experiments:
IMP-1 = IMP-1 (Serratia marcescens, UniProt P52699); test: biochemical; type: biochemical
Outline: (§1)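 Fluorescence assay, CCF2-FA substrate (cephalosporin core linking 7-hydroxycoumarin to fluorescein); inhibitor + MBL + substrate, 2 h, 25° C. IC50 by 4-parameter fit, semi-log plot.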

NDM-1 = NDM-1 (Klebsiella pneumoniae, UniProt C7C422); test: biochemical; type: biochemical; details: CCF2-FA substrate, 2 hours at 25° C; read-out: NDM-1 IC50
Outline: as §1

VIM-1 = VIM-1 (Pseudomonas aeruginosa (strain ATCC 15692 / DSM 22644 / CIP 104116 / JCM 14847 / LMG 12228 / 1C / PRS 101 / PAO1), UniProt A0A0F7KYQ8); test: biochemical; details: CCF2-FA substrate, 2 hours at 25° C
Outline: as §1

[1] = tested on: Escherichia coli expressing NDM-1 (CLB30005, CLB30016); type: cell-based; details: NDM-1 (CLB30016), with imipenem 1 μg/ml, 95% inhibition of bacterial growth
Outline: (§2)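 Colonies from overnight 35 °C blood-agar cultures were suspended in saline, diluted 1:100 into 1.1× CAMHB and exposed to test compound with or without imipenem at 1 μg/ml. After 22–24 h at 35 °C, absorbance was read to find the concentration restoring imipenem susceptibility.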

[2] = tested on: Klebsiella pneumoniae expressing VIM-1 (IHMA599644); type: cell-based; details: VIM-1 (IHMA599644), with imipenem 1 μg/ml, 95% inhibition of bacterial growth
Outline: as §2

[3] = tested on: Serratia marcescens expressing IMP-1 (CL5741); type: cell-based; details: IMP-1 (CL5741), with imipenem 1 μg/ml, 95% inhibition of bacterial growth
Outline: as §2

[4] = tested on: P. aeruginosa expressing IMP-1, efflux+ (MB9798); type: cell-based, Pseudomonas aeruginosa; details: for P. aeruginosa expressing IMP-1, efflux+ (MB9798) MITC95: imipenem at 2 μg/mL, in the presence of a class A, C, D serine β-lactamase inhibitor closely related to relebactam; for Efflux ratio: ratio MITC95 PA_9798/MITC95 PA_9799
Excerpt: (§3) The strain background is Pseudomonas aeruginosa PAO1.

[5] = tested on: P. aeruginosa expressing IMP-1, efflux− (MB9799); test: Efflux: concentration of MBL inhibitor which restores susceptibility to imipenem; type: cell-based, Pseudomonas aeruginosa; details: imipenem at 2 μg/mL, in the presence of a class A, C, D serine β-lactamase inhibitor closely related to relebactam
Excerpt: as §3

[6] = CCF2-FA substrate, 2 hours at 25° C, read-out: IMP-1 IC50

NDM-1, sequence (C7C422 whole entry, looked up, species assumed): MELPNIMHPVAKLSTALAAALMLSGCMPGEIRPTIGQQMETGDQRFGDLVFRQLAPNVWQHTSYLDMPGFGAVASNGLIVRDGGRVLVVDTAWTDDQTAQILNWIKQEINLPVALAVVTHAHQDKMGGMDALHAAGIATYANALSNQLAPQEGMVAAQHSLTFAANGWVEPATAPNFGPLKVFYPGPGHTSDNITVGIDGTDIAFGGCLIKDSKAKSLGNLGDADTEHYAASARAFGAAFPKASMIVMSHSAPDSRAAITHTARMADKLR
IMP-1, sequence (P52699 whole entry, looked up, species assumed): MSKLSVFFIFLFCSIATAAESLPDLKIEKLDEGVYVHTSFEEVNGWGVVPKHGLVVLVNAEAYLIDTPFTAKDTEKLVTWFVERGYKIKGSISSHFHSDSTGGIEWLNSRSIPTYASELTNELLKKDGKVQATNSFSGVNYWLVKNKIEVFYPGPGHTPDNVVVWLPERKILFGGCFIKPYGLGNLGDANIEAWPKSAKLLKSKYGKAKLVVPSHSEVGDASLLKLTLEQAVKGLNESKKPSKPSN

| Compound | IC50 (IMP-1; [6]) | IC50 (NDM-1) | IC50 (VIM-1) | Escherichia coli MITC95 [1] | Klebsiella pneumoniae MITC95 [2] | Serratia marcescens MITC95 [3] | P. aeruginosa expressing IMP-1, efflux+ (MB9798) MITC95 [4] | Efflux ratio [4] | P. aeruginosa expressing IMP-1, efflux− (MB9799) MITC95 [5] | IC50 (IMP-1) |
| --- | --- | --- | --- | --- | --- | --- | --- | --- | --- | --- |
| NC(=O)c1nc2c(-c3ccc(S(=O)(=O)C4CNC4)c(S(N)(=O)=O)c3-c3nn[nH]n3)cccc2[nH]1 [Example 254, 4-(4-(Azetidin-3-ylsulfonyl)-3-sulfamoyl-2-(2H-tetrazol-5-yl)phenyl)-1H-benzo[d]imidazole-2-carboxamide] | 0.748 nM | 0.0825 nM | 0.218 nM | 1.563 µM | 6.25 µM | 3.125 µM | 3.125 µM | 2.00 | 1.563 µM | – |
| CNC(=O)c1nc2c(-c3ccc(S(=O)(=O)C4CNC4)c(S(N)(=O)=O)c3-c3nn[nH]n3)cccc2[nH]1 [Example 255, 4-(4-(Azetidin-3-ylsulfonyl)-3-sulfamoyl-2-(2H-tetrazol-5-yl)phenyl)-N-methyl-1H-benzo[d]imidazole-2-carboxamide] | 1.66 nM | 0.151 nM | 0.419 nM | 6.25 µM | 12.5 µM | 6.25 µM | 12.5 µM | 4.00 | 3.125 µM | – |
| COC(=O)CNC(=O)c1nc2c(-c3ccc(S(=O)(=O)C4CNC4)c(S(N)(=O)=O)c3-c3nn[nH]n3)cccc2[nH]1 [Example 256, Methyl (4-(4-(azetidin-3-ylsulfonyl)-3-sulfamoyl-2-(2H-tetrazol-5-yl)phenyl)-1H-benzo[d]imidazole-2-carbonyl)glycinate] | 0.999 nM | 0.108 nM | 0.35 nM | 6.25 µM | 12.5 µM | 6.25 µM | 6.25 µM | 1.00 | 6.25 µM | – |
| NS(=O)(=O)c1c(S(=O)(=O)C2CNC2)ccc(-c2cccc3[nH]c(C(=O)NCC(=O)O)nc23)c1-c1nn[nH]n1 [Example 257, (4-(4-(azetidin-3-yl sulfonyl)-3-sulfamoyl-2-(2H-tetrazol-5-yl)phenyl)-1H-benzo[d]imidazole-2-carbonyl)glycine] | 1.2 nM | 0.123 nM | 0.428 nM | 25 µM | 50 µM | 25 µM | 25 µM | 2.00 | 12.5 µM | – |
| Nc1nc2c(-c3ccc(S(=O)(=O)CCN4CCOCC4)c(S(N)(=O)=O)c3-c3nn[nH]n3)cccc2s1 [Example 258, 3-(2-Aminobenzo[d]thiazol-4-yl)-6-((2-morpholinoethyl)sulfonyl)-2-(2H-tetrazol-5-yl)benzenesulfonamide] | – | 0.228 nM | 0.454 nM | 25 µM | 25 µM | 12.5 µM | 12.5 µM | 2.00 | 6.25 µM | 0.469 nM |
| Nc1nc2c(-c3ccc(S(=O)(=O)CCN4CCOCC4=O)c(S(N)(=O)=O)c3-c3nn[nH]n3)cccc2s1 [Example 259, 3-(2-aminobenzo[d]thiazol-4-yl)-6-((2-(3-oxomorpholino)ethyl)sulfonyl)-2-(2H-tetrazol-5-yl)benzenesulfonamide] | 0.349 nM | 0.167 nM | 0.245 nM | 25 µM | 25 µM | 12.5 µM | 12.5 µM | 2.00 | 6.25 µM | – |

— US10227331B2 (priority 2015, dated 2019)
